Measured values from the CheMixHub viscosity set.
± gives the uncertainty stated by the source.

Assay: xn = mol fraction of the nth substance listed

CC(C)CCO + OCc1ccccc1
viscosity [mPa·s], 101 kPa
Details | x1 = 0.0955 | x1 = 0.1908 | x1 = 0.2853 | x1 = 0.3812 | x1 = 0.4814 | x1 = 0.5847 | x1 = 0.6842 | x1 = 0.7879 | x1 = 0.8921
293.15 K | 6.28 ± 0.13 | 6.27 ± 0.13 | 6.26 ± 0.13 | 6.18 ± 0.13 | 6.07 ± 0.13 | 5.86 ± 0.12 | 5.58 ± 0.12 | 5.23 ± 0.11 | 4.86 ± 0.1
298.15 K | 5.53 ± 0.11 | 5.51 ± 0.11 | 5.49 ± 0.11 | 5.42 ± 0.11 | 5.31 ± 0.11 | 5.11 ± 0.11 | 4.85 ± 0.1 | 4.53 ± 0.1 | 4.19 ± 0.09
303.15 K | 4.64 ± 0.1 | 4.63 ± 0.1 | 4.62 ± 0.1 | 4.58 ± 0.1 | 4.49 ± 0.09 | 4.37 ± 0.09 | 4.19 ± 0.09 | 3.94 ± 0.08 | 3.64 ± 0.08
308.15 K | 3.96 ± 0.08 | 3.92 ± 0.08 | 3.89 ± 0.08 | 3.86 ± 0.08 | 3.81 ± 0.08 | 3.7 ± 0.08 | 3.53 ± 0.07 | 3.28 ± 0.07 | 3 ± 0.06
313.15 K | 3.48 ± 0.07 | 3.44 ± 0.07 | 3.39 ± 0.07 | 3.36 ± 0.07 | 3.31 ± 0.07 | 3.22 ± 0.07 | 3.1 ± 0.07 | 2.95 ± 0.06 | 2.71 ± 0.06
318.15 K | 3.05 ± 0.06 | 3 ± 0.06 | 2.95 ± 0.06 | 2.89 ± 0.06 | 2.83 ± 0.06 | 2.74 ± 0.06 | 2.63 ± 0.06 | 2.49 ± 0.05 | 2.3 ± 0.05

CNC(C)=O + CCCCN
308.15 K, 101 kPa
Details | viscosity [mPa·s]
x1 = 0.0335 | 0.414 ± 0.011
x1 = 0.1849 | 0.5985 ± 0.011
x1 = 0.3822 | 0.9135 ± 0.012
x1 = 0.4385 | 1.049 ± 0.013
x1 = 0.5671 | 1.387 ± 0.014
x1 = 0.6888 | 1.829 ± 0.017
x1 = 0.7756 | 2.15 ± 0.018
x1 = 0.8792 | 2.675 ± 0.022
x1 = 0.9781 | 3.172 ± 0.025

Cn1cc[n+](CCCC#N)c1.O=S(=O)([O-])C(F)(F)F + CC#N
Details | viscosity [mPa·s]
298.15 K, 101 kPa, x1 = 0.7996 | 306.5 ± 19

CCOCCO + CC(C)O
viscosity [mPa·s], 101.33 kPa
Details | x1 = 0.1024 | x1 = 0.2002 | x1 = 0.301 | x1 = 0.4035 | x1 = 0.5037 | x1 = 0.6022 | x1 = 0.6984 | x1 = 0.8009 | x1 = 0.9017
298.15 K | 1.858 ± 0.012 | 1.764 ± 0.012 | 1.703 ± 0.011 | 1.692 ± 0.011 | 1.682 ± 0.012 | 1.693 ± 0.012 | 1.711 ± 0.012 | 1.756 ± 0.012 | 1.773 ± 0.012
303.15 K | 1.614 ± 0.011 | 1.54 ± 0.01 | 1.495 ± 0.01 | 1.49 ± 0.01 | 1.491 ± 0.01 | 1.504 ± 0.01 | 1.518 ± 0.011 | 1.566 ± 0.011 | 1.575 ± 0.011
308.15 K | 1.404 ± 0.009 | 1.356 ± 0.009 | 1.324 ± 0.009 | 1.325 ± 0.009 | 1.329 ± 0.009 | 1.34 ± 0.009 | 1.36 ± 0.01 | 1.398 ± 0.01 | 1.413 ± 0.01
313.15 K | 1.233 ± 0.008 | 1.19 ± 0.008 | 1.17 ± 0.008 | 1.176 ± 0.008 | 1.19 ± 0.008 | 1.203 ± 0.009 | 1.217 ± 0.009 | 1.259 ± 0.009 | 1.267 ± 0.009

CNC(C)=O + c1ccccc1
308.15 K, 101.33 kPa
Details | viscosity [mPa·s]
x1 = 0.0294 | 0.4955 ± 0.0046
x1 = 0.226 | 0.8005 ± 0.0071
x1 = 0.3331 | 1.021 ± 0.009
x1 = 0.437 | 1.255 ± 0.011
x1 = 0.5349 | 1.51 ± 0.014
x1 = 0.6329 | 1.78 ± 0.016
x1 = 0.7301 | 2.099 ± 0.02
x1 = 0.823 | 2.452 ± 0.023
x1 = 0.9747 | 3.132 ± 0.031

CNC(C)=O + O
viscosity [mPa·s]
Details | 303.18 K | 308.15 K | 313.15 K | 318.15 K
101 kPa, x2 = 0.0402 | 3.71 ± 0.03 | – | – | –
101 kPa, x2 = 0.1032 | 3.81 ± 0.03 | – | – | –
101 kPa, x2 = 0.2124 | 4.02 ± 0.03 | – | – | –
101 kPa, x2 = 0.3814 | 4.33 ± 0.03 | – | – | –
101 kPa, x2 = 0.455 | 4.42 ± 0.03 | – | – | –
101 kPa, x2 = 0.5528 | 4.37 ± 0.04 | – | – | –
101 kPa, x2 = 0.7092 | 3.7 ± 0.03 | – | – | –
101 kPa, x2 = 0.8121 | 2.89 ± 0.03 | – | – | –
101.33 kPa, x1 = 0.0301 | – | 0.997 ± 0.006 | 0.893 ± 0.006 | 0.812 ± 0.005
101.33 kPa, x1 = 0.06 | – | 1.293 ± 0.008 | 1.137 ± 0.007 | 1.026 ± 0.006
101.33 kPa, x1 = 0.1002 | – | 1.693 ± 0.01 | 1.465 ± 0.009 | 1.301 ± 0.008
101.33 kPa, x1 = 0.15 | – | 2.24 ± 0.013 | 1.902 ± 0.011 | 1.651 ± 0.01
101.33 kPa, x1 = 0.1999 | – | 2.766 ± 0.016 | 2.326 ± 0.014 | 2.001 ± 0.012
101.33 kPa, x1 = 0.245 | – | 3.108 ± 0.018 | 2.626 ± 0.016 | 2.257 ± 0.013
101.33 kPa, x1 = 0.3006 | – | 3.402 ± 0.02 | 2.882 ± 0.017 | 2.483 ± 0.015
101.33 kPa, x1 = 0.3502 | – | 3.597 ± 0.021 | 3.063 ± 0.018 | 2.646 ± 0.016
101.33 kPa, x1 = 0.4012 | – | 3.748 ± 0.022 | 3.198 ± 0.019 | 2.769 ± 0.017
101.33 kPa, x1 = 0.4501 | – | 3.852 ± 0.023 | 3.3 ± 0.02 | 2.859 ± 0.018
101.33 kPa, x1 = 0.5 | – | 3.921 ± 0.024 | 3.37 ± 0.021 | 2.914 ± 0.018
101.33 kPa, x1 = 0.5502 | – | 3.942 ± 0.025 | 3.398 ± 0.021 | 2.938 ± 0.019
101.33 kPa, x1 = 0.6018 | – | 3.906 ± 0.025 | 3.382 ± 0.022 | 2.928 ± 0.019
101.33 kPa, x1 = 0.655 | – | 3.825 ± 0.025 | 3.327 ± 0.022 | 2.894 ± 0.019
101.33 kPa, x1 = 0.7019 | – | 3.765 ± 0.025 | 3.281 ± 0.022 | 2.869 ± 0.019
101.33 kPa, x1 = 0.7551 | – | 3.688 ± 0.025 | 3.226 ± 0.022 | 2.832 ± 0.019
101.33 kPa, x1 = 0.807 | – | 3.606 ± 0.025 | 3.167 ± 0.022 | 2.797 ± 0.02
101.33 kPa, x1 = 0.845 | – | 3.554 ± 0.025 | 3.13 ± 0.022 | 2.768 ± 0.02
101.33 kPa, x1 = 0.9015 | – | 3.495 ± 0.025 | 3.077 ± 0.022 | 2.733 ± 0.02
101.33 kPa, x1 = 0.95 | – | 3.44 ± 0.025 | 3.044 ± 0.022 | 2.703 ± 0.02

CCOCCO + ClC(Cl)(Cl)Cl
viscosity [mPa·s], 100 kPa
Details | x2 = 0.0977 | x2 = 0.1959 | x2 = 0.2946 | x2 = 0.3938 | x2 = 0.4935 | x2 = 0.5937 | x2 = 0.6945 | x2 = 0.7958 | x2 = 0.8976
298.15 K | 1.784 ± 0.016 | 1.657 ± 0.015 | 1.539 ± 0.014 | 1.428 ± 0.013 | 1.325 ± 0.012 | 1.229 ± 0.011 | 1.14 ± 0.011 | 1.056 ± 0.0099 | 0.9785 ± 0.0092
303.15 K | 1.572 ± 0.014 | 1.47 ± 0.013 | 1.373 ± 0.013 | 1.283 ± 0.012 | 1.197 ± 0.011 | 1.118 ± 0.01 | 1.043 ± 0.0098 | 0.9725 ± 0.0092 | 0.9067 ± 0.0086
308.15 K | 1.391 ± 0.013 | 1.308 ± 0.012 | 1.23 ± 0.011 | 1.155 ± 0.011 | 1.085 ± 0.01 | 1.019 ± 0.0096 | 0.9566 ± 0.009 | 0.8976 ± 0.0085 | 0.8421 ± 0.0081
313.15 K | 1.236 ± 0.011 | 1.168 ± 0.011 | 1.105 ± 0.01 | 1.044 ± 0.0098 | 0.9864 ± 0.0093 | 0.9318 ± 0.0088 | 0.8798 ± 0.0084 | 0.8306 ± 0.008 | 0.7838 ± 0.0076
